From publication PMC3429506, “Screening for Novel LRRK2 Inhibitors Using a High-Throughput TR-FRET Cellular Assay for LRRK2 Ser935 Phosphorylation” (PLoS ONE, 2012)

Legend:
[1] = system: LRRK2 Ser935 phosphorylation; assay: TR-FRET cellular assay for LRRK2 Ser935 phosphorylation (cell background not given); assay type: cell-based, human; conditions: result in words
Protocol: Transduced cells in the 384-well assay plate were incubated with indicated inhibitors (5X, 5 µL/well) for 60 to 90 minutes. During this time, 6 X lysis buffer (Life Technologies) was supplemented with 30 nM Tb-labeled anti-LRRK2 pSer935 antibody and both protease and phosphatase inhibitor cocktails (Sigma). The complete 6 X lysis buffer was added to each well (5 µL/well) and the plates were incubated at room temperature in the dark for 2 hours. The plate was then read on an EnVision® multilabel plate reader (PerkinElmer, Waltham, MA) with excitation at 340 nm and emission 520 nm and 495 nm. […]. A sigmoidal dose-response equation with varying slope was used to fit the data and generate IC50 values. […]. The IC50 values reported in Table 1 are the averaged numbers from three independent experiments.

LRRK2 wild-type [2] = target: T1, LRRK2 wild-type (Homo sapiens, UniProt Q5S007); assay: TR-FRET cellular assay for LRRK2 Ser935 phosphorylation, U-2 OS cells, BacMam LRRK2-GFP wild-type; assay type: cell-based; design: This high-throughput assay utilizes cells expressing full-length human LRRK2 with a C-terminal GFP tag (LRRK2-GFP); host or cells: U-2 OS cells transduced with BacMam; conditions: WT, +/- SD, three independent experiments, * = partial inhibition, read-out: IC50, TR-FRET cell-based assay for Ser935 phosphorylation of LRRK2
T1 sequence (Q5S007 whole entry): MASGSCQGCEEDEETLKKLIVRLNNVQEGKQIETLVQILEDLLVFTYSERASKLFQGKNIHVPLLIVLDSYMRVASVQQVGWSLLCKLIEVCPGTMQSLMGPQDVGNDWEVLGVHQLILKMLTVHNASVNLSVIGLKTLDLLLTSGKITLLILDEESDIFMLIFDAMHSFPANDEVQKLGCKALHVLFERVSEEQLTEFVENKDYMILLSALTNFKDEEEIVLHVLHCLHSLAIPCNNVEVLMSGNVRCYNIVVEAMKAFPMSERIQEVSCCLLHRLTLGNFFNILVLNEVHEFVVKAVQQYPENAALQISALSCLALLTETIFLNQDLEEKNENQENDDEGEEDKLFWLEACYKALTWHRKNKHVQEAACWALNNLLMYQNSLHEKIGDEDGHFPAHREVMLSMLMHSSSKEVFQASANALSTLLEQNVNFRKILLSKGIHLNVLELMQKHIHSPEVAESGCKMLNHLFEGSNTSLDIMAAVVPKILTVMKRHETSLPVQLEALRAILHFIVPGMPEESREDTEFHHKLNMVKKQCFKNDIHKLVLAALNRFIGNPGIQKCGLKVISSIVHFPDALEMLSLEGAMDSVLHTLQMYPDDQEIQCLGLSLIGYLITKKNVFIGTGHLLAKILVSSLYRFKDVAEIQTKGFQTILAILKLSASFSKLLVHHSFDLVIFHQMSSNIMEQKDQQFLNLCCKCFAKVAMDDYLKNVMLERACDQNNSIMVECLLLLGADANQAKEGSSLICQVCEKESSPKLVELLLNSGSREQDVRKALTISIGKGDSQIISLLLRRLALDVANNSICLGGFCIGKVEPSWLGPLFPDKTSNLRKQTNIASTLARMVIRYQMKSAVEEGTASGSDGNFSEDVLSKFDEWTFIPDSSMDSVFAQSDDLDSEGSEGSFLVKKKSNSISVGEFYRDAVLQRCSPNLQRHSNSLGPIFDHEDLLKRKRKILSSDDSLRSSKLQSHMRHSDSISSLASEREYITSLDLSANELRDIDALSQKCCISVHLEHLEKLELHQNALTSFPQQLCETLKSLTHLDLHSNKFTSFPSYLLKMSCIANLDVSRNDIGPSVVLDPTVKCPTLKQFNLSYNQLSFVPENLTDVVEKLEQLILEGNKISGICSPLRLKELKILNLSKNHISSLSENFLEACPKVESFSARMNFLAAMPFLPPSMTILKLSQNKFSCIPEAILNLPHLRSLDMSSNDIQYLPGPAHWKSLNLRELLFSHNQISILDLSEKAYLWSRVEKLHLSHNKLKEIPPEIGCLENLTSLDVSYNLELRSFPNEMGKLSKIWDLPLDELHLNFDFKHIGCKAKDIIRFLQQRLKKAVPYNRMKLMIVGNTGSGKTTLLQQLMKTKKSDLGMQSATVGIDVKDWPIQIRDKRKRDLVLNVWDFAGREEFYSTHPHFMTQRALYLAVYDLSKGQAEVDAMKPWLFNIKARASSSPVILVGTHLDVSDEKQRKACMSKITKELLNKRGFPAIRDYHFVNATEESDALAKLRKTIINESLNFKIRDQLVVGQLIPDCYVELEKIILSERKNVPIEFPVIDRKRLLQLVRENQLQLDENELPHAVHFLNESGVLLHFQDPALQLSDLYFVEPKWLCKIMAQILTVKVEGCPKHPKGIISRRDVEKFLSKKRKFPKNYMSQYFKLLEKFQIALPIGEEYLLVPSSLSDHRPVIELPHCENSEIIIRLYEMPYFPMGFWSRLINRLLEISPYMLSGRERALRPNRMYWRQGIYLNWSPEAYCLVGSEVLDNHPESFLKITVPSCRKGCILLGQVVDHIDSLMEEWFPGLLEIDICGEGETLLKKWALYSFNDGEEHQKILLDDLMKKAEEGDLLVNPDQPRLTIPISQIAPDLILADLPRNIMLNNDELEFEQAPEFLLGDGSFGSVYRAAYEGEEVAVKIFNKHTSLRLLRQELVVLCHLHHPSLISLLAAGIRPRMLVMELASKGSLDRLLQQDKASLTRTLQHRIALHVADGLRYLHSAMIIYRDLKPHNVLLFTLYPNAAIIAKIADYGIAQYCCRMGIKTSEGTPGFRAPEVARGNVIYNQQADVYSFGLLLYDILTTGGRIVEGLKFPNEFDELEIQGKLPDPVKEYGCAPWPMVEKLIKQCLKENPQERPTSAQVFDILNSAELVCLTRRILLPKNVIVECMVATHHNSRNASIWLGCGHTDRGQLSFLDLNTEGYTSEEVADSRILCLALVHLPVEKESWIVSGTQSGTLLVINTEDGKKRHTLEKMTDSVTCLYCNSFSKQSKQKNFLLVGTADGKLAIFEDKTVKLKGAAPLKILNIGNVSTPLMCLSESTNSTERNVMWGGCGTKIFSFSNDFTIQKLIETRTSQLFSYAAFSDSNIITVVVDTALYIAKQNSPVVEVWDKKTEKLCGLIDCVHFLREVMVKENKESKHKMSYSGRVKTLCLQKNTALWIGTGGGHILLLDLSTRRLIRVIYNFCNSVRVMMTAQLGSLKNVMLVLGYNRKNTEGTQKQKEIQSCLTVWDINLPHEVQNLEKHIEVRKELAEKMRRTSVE
Protocol: (§1) U-2 OS cells are maintained in growth medium (McCoy’s 5A supplemented with 10% dialyzed FBS (dFBS), 10 mM HEPES, 0.1 mM NEAA, 1 mM Sodium Pyruvate, and 100 U/mL Penicillin/100 µg/mL Streptomycin). HEK293T cells are maintained in DMEM with 10% dFBS, 10 mM HEPES, 0.1 mM NEAA and 100 U/mL Penicillin/100 µg/mL Streptomycin. SH-SY5Y cells are maintained in DMEM/F-12 medium supplemented with 10% dFBS and 100 U/mL Penicillin/100 µg/mL Streptomycin. […] GIBCO® human neural stem cells (hNSCs) were propagated as an adherent culture in StemPro® NSC SFM according to the manufacturer’s recommended protocol (Life Technologies). For BacMam transduction of U-2 OS and HEK293T, cells were harvested, mixed with various amounts of BacMam LRRK2-GFP reagent (v/v) and plated onto 6-well plates. […] Cells were assayed in 384-well format (∼20,000 cells/well) 48 hours post-transduction as above.
(§2) Transduced cells in the 384-well assay plate were incubated with indicated inhibitors (5X, 5 µL/well) for 60 to 90 minutes. During this time, 6 X lysis buffer (Life Technologies) was supplemented with 30 nM Tb-labeled anti-LRRK2 pSer935 antibody and both protease and phosphatase inhibitor cocktails (Sigma). The complete 6 X lysis buffer was added to each well (5 µL/well) and the plates were incubated at room temperature in the dark for 2 hours. […] A sigmoidal dose-response equation with varying slope was used to fit the data and generate IC50 values. Z′-factor values were calculated as: Z′-factor = 1 - [(3 × stdevno virus +3 × stdevmaxvirus)/(avgmaxvirus – avgno-virus)]. The IC50 values reported in Table 1 are the averaged numbers from three independent experiments.

LRRK2 wild-type [3] = target: T1, LRRK2 wild-type; assay: TR-FRET cellular assay for LRRK2 Ser935 phosphorylation, SH-SY5Y cells, BacMam LRRK2-GFP wild-type; assay type: cell-based; design: This high-throughput assay utilizes cells expressing full-length human LRRK2 with a C-terminal GFP tag (LRRK2-GFP); host or cells: SH-SY5Y cells transduced with BacMam; conditions: WT, +/- SD, three independent experiments, * = partial inhibition, read-out: IC50, TR-FRET cell-based assay for Ser935 phosphorylation of LRRK2
Protocol: as §1, §2

LRRK2 G2019S [4] = target: T2, LRRK2 G2019S (Homo sapiens, UniProt Q5S007, G2019S); assay: TR-FRET cellular assay for LRRK2 Ser935 phosphorylation, SH-SY5Y cells, BacMam LRRK2-GFP G2019S (incl. Tocriscreen Mini library screen and follow-up); assay type: cell-based; design: This high-throughput assay utilizes cells expressing full-length human LRRK2 with a C-terminal GFP tag (LRRK2-GFP); host or cells: SH-SY5Y cells transduced with BacMam; conditions: for IC50: three independent experiments
T2 sequence (Q5S007 whole entry G2019S): as the sequence (Q5S007 whole entry) above, with G2019S counted along it
Protocol: as §1, §2
40 nL of 10 mM Tocris library compounds in DMSO were dispensed into each well of the assay plate by the ECHO system. Equal volumes of DMSO were dispensed into the control wells. Cells were incubated with compounds for 90 to 120 min prior to cell lysis and detection as described above. The percent inhibition is calculated as: [(average emission ratios of DMSO control wells – average emission ratios of compound wells)/(average emission ratios of DMSO control wells – average emission ratios of LRRK2-IN-1 treated wells)] * 100. For the dose-response follow-up studies, fresh compound DMSO stock solutions were prepared from powder. […] Z′-factor value was calculated as: Z′-factor = 1 - [(3 × stdevLRRK2-IN-1+3 × stdevDMSO)/(avgDMSO – avgLRRK2-IN-1)]. The IC50 values reported in Table 2 are the averaged numbers from three independent experiments for both cellular and biochemical TR-FRET assays and one representative result of two independent experiments for the cytotoxicity assay.

LRRK2 G2019S [5] = target: T2, LRRK2 G2019S; assay: TR-FRET cellular assay for LRRK2 Ser935 phosphorylation, U-2 OS cells, BacMam LRRK2-GFP G2019S; assay type: cell-based; design: This high-throughput assay utilizes cells expressing full-length human LRRK2 with a C-terminal GFP tag (LRRK2-GFP); host or cells: U-2 OS, SH-SY5Y, HEK293T cells or human neural stem cells transduced with BacMam; conditions: G2019S, +/- SD, three independent experiments, * = partial inhibition, read-out: IC50, TR-FRET cell-based assay for Ser935 phosphorylation of LRRK2
Protocol: as §1, §2

LRRK2 wild-type [6] = target: T1, LRRK2 wild-type; assay: TR-FRET cellular assay for LRRK2 Ser935 phosphorylation, HEK293T cells, BacMam LRRK2-GFP wild-type; design: This high-throughput assay utilizes cells expressing full-length human LRRK2 with a C-terminal GFP tag (LRRK2-GFP); host or cells: HEK293T cells transduced with BacMam; conditions: WT, +/- SD, three independent experiments, * = partial inhibition, read-out: IC50, TR-FRET cell-based assay for Ser935 phosphorylation of LRRK2
Protocol: as §1, §2

LRRK2 G2019S [7] = target: T2, LRRK2 G2019S; assay: TR-FRET cellular assay for LRRK2 Ser935 phosphorylation, HEK293T cells, BacMam LRRK2-GFP G2019S; design: This high-throughput assay utilizes cells expressing full-length human LRRK2 with a C-terminal GFP tag (LRRK2-GFP); host or cells: HEK293T cells transduced with BacMam; conditions: +/- SD, three independent experiments, * = partial inhibition, read-out: IC50, TR-FRET cell-based assay for Ser935 phosphorylation of LRRK2
Protocol: as §1, §2

LRRK2 G2019S [8] = target: T2, LRRK2 G2019S; assay: In vitro biochemical LRRK2 TR-FRET activity assay; conditions: LRRK2 G2019S, ATP 134 µM (Km,app), LRRKtide substrate, three independent experiments; read-out: Biochemical LRRK2 assay IC50 +/- SD
Protocol: The Biochemical LRRK2 TR-FRET activity assay was performed according to the manufacture recommended assay protocol (Life Technologies). […] After incubation at room temperature for 1 hour, the kinase reactions were stopped by addition of 10 µL of 20 mM EDTA and 4 nM Tb-anti-pERM (pLRRKtide) antibody in TR-FRET dilution buffer (Life Technologies). After a 30 minute incubation at room temperature, TR-FRET measurements were obtained on a BMG PHERAstar plate reader using LanthaScreen® filters and settings. A 16 point, 2-fold dilution series of each compound was tested in triplicate at each concentration and assays were also performed in triplicate.

GFP-LRRK2 G2019S = target: T3, GFP-LRRK2 G2019S (Homo sapiens, UniProt Q5S007, G2019S); assay: Immunoprecipitation/Western analysis of LRRK2 phosphorylation at Ser910, Ser935, Ser955, Ser973 in HEK293 T-REx GFP-LRRK2 G2019S cells; assay type: cell-based; conditions: 20 µM, 90 min, HEK293 GFP-LRRK2 G2019S, Figure 6
T3 construct: expressed in transfected cells
T3 sequence (Q5S007 whole entry G2019S): as the sequence (Q5S007 whole entry) above, with G2019S counted along it
Protocol: Immunoblot analysis: BacMam LRRK2-GFP transduced U-2 OS or SH-SY5Y cells (10^7 cells) were left untreated or treated with 3 µM LRRK2-IN-I for 90 min. For lysate preparation, the cells were washed once with ice-cold PBS and lysed by addition of ice-cold lysis buffer (20 mM Tris-HCl, pH 7.4, 1% NP-40, 5 mM EDTA, 5 mM NaF, 150 mM NaCl, and 1∶100 of protease and phosphatase inhibitor cocktails). The lysate was cleared of debris by centrifugation. Equal amount of total protein was loaded onto each lane for SDS-PAGE (3–8% Tris Acetate). The proteins were transferred onto nitrocellulose membrane using the iBLOT® dry blotting system (Life Technologies) according to manufacturer’s protocol. The membranes were blocked and incubated with a primary antibody against LRRK2 (Cell Signaling Technologies), followed by incubation with alkaline phosphatase-conjugated secondary antibody (WesternBreeze® chromogenic Kit, Life Technologies). The blot was developed by using the chromogenic BCIP/NBT substrate (WesternBreeze® chromogenic Kit, Life Technologies). […] Two days post induction, cells were treated for 90 minutes in the presence of 20 µM of compound or DMSO vehicle control. Cells were rapidly lysed in ice cold lysis buffer 50 mM Tris/HCl, pH 7.5, 1 mM EGTA, 1 mM EDTA, […] 1 mM sodium orthovanadate, 10 mM sodium beta-glycerolphosphate, 50 mM NaF, 5 mM sodium pyrophosphate, 0.27 M sucrose, 1 mM benzamidine and 2 mM phenylmethanesulphonylfluoride (PMSF) and one tablet each complete protease inhibitor and PhosSTOP phosphatase inhibitor (Roche) and was supplemented with 1% (v/v) Triton X-100. GFP-LRRK2 was immunoprecipitated with GFP nanotrap beads (ChromoTek). Immunecomplexes were washed twice with lysis buffer supplemented with 300 mM NaCl and once with Buffer A (50 mM Tris/HCl, pH 7.5, 50 mM NaCl, 0.1 mM EGTA and 0.1% (v/v) 2-mercaptoethanol, and 0.27 M sucrose).

[9] = Cytotoxicity assay (resazurin-based cell viability); conditions: human
[10] = SH-SY5Y, G2019S, +/- SD, * = partial inhibition, read-out: IC50, TR-FRET cell-based assay for Ser935 phosphorylation of LRRK2

Row | SMILES | effect on the phosphorylation of Ser935 in the TR-FRET cellular assay [1] | IC50 (LRRK2 wild-type [2]) [nM] | IC50 (LRRK2 wild-type [3]) [nM] | IC50 (LRRK2 G2019S [4]; [10]) [nM] | IC50 (LRRK2 G2019S [5]) [nM] | IC50 (LRRK2 wild-type [6]) [nM] | IC50 (LRRK2 G2019S [7]) [nM] | IC50 (LRRK2 G2019S [8]) [nM] | effect on phosphorylation of Ser910, Ser935, Ser955 and Ser973 (IP-Western) (GFP-LRRK2 G2019S) | IC50 [9] [nM] | inhibition at 20 µM (LRRK2 G2019S [4]; SH-SY5Y, Tocriscreen Mini library screen, 20 µM, SH-SY5Y G2019S, relative to LRRK2-IN-1 control, read-out: %Inhibition Initial screen) [%] | %Inhibition Initial screen (LRRK2 G2019S [4]; Tocriscreen Mini library screen, 20 µM, SH-SY5Y G2019S, relative to LRRK2-IN-1 control) [%] | Cellular TR-FRET Assay Max % Inhibition (LRRK2 G2019S [4]; dose-response follow-up, SH-SY5Y G2019S, 90 min) [%] | IC50 (LRRK2 G2019S [4]; dose-response follow-up, SH-SY5Y G2019S, read-out: Cellular TR-FRET Assay IC50 +/-SD) [nM]
1 | O=S(=O)(NCCNC/C=C/c1ccc(Br)cc1)c1cccc2cnccc12 [H-89] | no effect | > 20000 | > 20000 | > 20000 | > 20000 | – | – | – | – | – | – | – | – | –
2 | Cc1cncc2cccc(S(=O)(=O)N3CCCNC[C@@H]3C)c12 [H-1152] | – | 3280 | 1660 | 770 | 890 | 2940 | 1380 | – | – | – | – | – | – | –
3 | Oc1c2ccccc2c2c3c(cccc13)N=N2 [SP 600125] | – | – | – | – | – | – | – | 220 | inhibited phosphorylation of Ser910, Ser935, Ser955 and Ser973 | > 20000 | 88 | 88.3 | 103 | 1000
